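How tested: cells in 96-well plates exposed to compound for 48 hours at five concentrations. GI50: concentration for 50% inhibition of growth. TGI: total growth inhibition.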
Tests used:
Experiment in all cases: DTP human tumour cell line panel, 48 h; in the data active = GI50 below about 0.43 µM; inactive = the rest
[1] = tested on: MOLT-4 leukemia
[2] = tested on: EKVX NSCLC
[3] = tested on: MDA-MB-231 breast
[4] = tested on: TK-10 renal
[5] = tested on: PC-3 prostate
[6] = tested on: SF-295 CNS
[7] = tested on: SK-MEL-5 melanoma
[8] = tested on: MDA-MB-435
[9] = tested on: CCRF-CEM leukemia
[10] = tested on: OVCAR-8 ovarian
[11] = tested on: NCI-H226 lung
[12] = tested on: HOP-92 NSCLC
[13] = tested on: RXF 393 renal
[14] = tested on: KM12 colon
[15] = tested on: HCT-15 colon
[16] = tested on: T-47D breast
[17] = tested on: NCI-H522 lung
[18] = tested on: UACC-62 melanoma
[19] = tested on: LOX IMVI melanoma
[20] = tested on: SN12C renal
[21] = tested on: RPMI-8226 leukemia
[22] = tested on: MALME-3M melanoma
[23] = tested on: 786-0 renal
[24] = tested on: SW-620 colon
[25] = tested on: HCT-116 colon
[26] = tested on: NCI-H460 lung
[27] = tested on: A498 renal
[28] = tested on: ACHN renal
[29] = tested on: UO-31 renal
[30] = tested on: SK-MEL-2 melanoma
[31] = tested on: SK-MEL-28 melanoma
[32] = tested on: UACC-257 melanoma
[33] = tested on: MDA-MB-468 breast
[34] = tested on: SR leukemia
[35] = tested on: DU-145 prostate
[36] = tested on: MCF7 breast
[37] = tested on: HL-60(TB) leukemia
[38] = tested on: SF-539 CNS
[39] = tested on: SNB-19 CNS
[40] = tested on: IGROV1 ovarian
[41] = tested on: OVCAR-5 ovarian
[42] = tested on: SF-268 CNS
[43] = tested on: HOP-62 NSCLC
[44] = tested on: HS 578T breast
[45] = tested on: M14 melanoma
[46] = tested on: HT29 colon
[47] = tested on: NCI-H23 lung
[48] = tested on: CAKI-1 renal
[49] = tested on: COLO 205 colon
[50] = tested on: K-562 leukemia
[51] = tested on: HCC-2998 colon
[52] = tested on: A549 NSCLC
[53] = tested on: SK-OV-3 ovarian
[54] = tested on: U251 CNS
[55] = tested on: OVCAR-4 ovarian
[56] = tested on: OVCAR-3 ovarian
[57] = tested on: BT-549 breast
[58] = tested on: SNB-75 CNS

Cc1ccc(C(=O)CSc2nc3ccc(F)cc3c(=O)n2-c2ccc(Cl)cc2)cc1
32.6 µM: TGI [13]
44.5 µM: TGI [48]
inactive: GI50 [1] > 100 µM | GI50 [2] > 100 µM | GI50 [3] 15.1 µM | GI50 [4] 98.1 µM | GI50 [5] > 100 µM | GI50 [6] 3.51 µM | GI50 [7] > 100 µM | GI50 [8] > 100 µM | GI50 [9] > 100 µM | GI50 [10] 7.89 µM | GI50 [11] 3.13 µM | GI50 [12] 5 µM | GI50 [13] 4.89 µM | GI50 [14] > 100 µM | GI50 [15] > 100 µM | GI50 [16] > 100 µM | GI50 [17] > 100 µM | GI50 [18] > 100 µM | GI50 [19] 4.04 µM | GI50 [20] > 100 µM | GI50 [21] > 100 µM | GI50 [22] 66.7 µM | GI50 [23] 11.1 µM | GI50 [24] > 100 µM | GI50 [25] > 100 µM | GI50 [26] 10.3 µM | GI50 [27] > 100 µM | GI50 [28] 6.83 µM | GI50 [29] 37 µM | GI50 [30] > 100 µM | GI50 [31] > 100 µM | GI50 [32] > 100 µM | GI50 [33] 82.9 µM | GI50 [34] > 100 µM | GI50 [35] 59.5 µM | GI50 [36] > 100 µM | GI50 [37] > 100 µM | GI50 [38] 5.08 µM | GI50 [39] 4.93 µM | GI50 [40] 27.1 µM | GI50 [41] > 100 µM | GI50 [42] 25.3 µM | GI50 [43] 3.95 µM | GI50 [44] 3.41 µM | GI50 [45] > 100 µM | GI50 [46] > 100 µM | GI50 [47] > 100 µM | GI50 [48] 4.49 µM | GI50 [49] > 100 µM | GI50 [50] > 100 µM | GI50 [51] > 100 µM | GI50 [52] > 100 µM | GI50 [53] 39.1 µM | GI50 [54] 10.8 µM | GI50 [55] 9.45 µM | GI50 [56] > 100 µM | GI50 [57] 11.2 µM
47.4 µM: TGI [38]
21.4 µM: TGI [6]
73.8 µM: TGI [39]
50.4 µM: TGI [43]
57.5 µM: TGI [12]
24.9 µM: TGI [11]
> 100 µM: TGI [1] | TGI [2] | TGI [3] | TGI [4] | TGI [5] | TGI [7] | TGI [8] | TGI [9] | TGI [10] | TGI [14] | TGI [15] | TGI [16] | TGI [17] | TGI [18] | TGI [19] | TGI [20] | TGI [21] | TGI [22] | TGI [23] | TGI [24] | TGI [25] | TGI [26] | TGI [27] | TGI [28] | TGI [29] | TGI [30] | TGI [31] | TGI [32] | TGI [33] | TGI [34] | TGI [35] | TGI [36] | TGI [37] | TGI [40] | TGI [41] | TGI [42] | TGI [45] | TGI [46] | TGI [47] | TGI [49] | TGI [50] | TGI [51] | TGI [52] | TGI [53] | TGI [54] | TGI [55] | TGI [56] | TGI [57]
86.2 µM: TGI [44]

CN1CCN(c2ccc(C(=O)/C=C/c3cc(Br)ccc3F)cc2)CC1
13.5 µM: TGI [8]
9.77 µM: TGI [33]
15.6 µM: TGI [9]
19.7 µM: TGI [45]
14.5 µM: TGI [37]
26 µM: TGI [10]
11.5 µM: TGI [36]
23.9 µM: TGI [55]
16.6 µM: TGI [58]
35.9 µM: TGI [41]
30.1 µM: TGI [49]
38.8 µM: TGI [44]
28.7 µM: TGI [6]
30 µM: TGI [3]
16.5 µM: TGI [52]
14.7 µM: TGI [15]
24.6 µM: TGI [48]
13.7 µM: TGI [13]
3.93 µM: TGI [25]
27.1 µM: TGI [17]
22.4 µM: TGI [23]
47.3 µM: TGI [16]
26.4 µM: TGI [2]
10.7 µM: TGI [34]
12.5 µM: TGI [19]
28.6 µM: TGI [53]
36.2 µM: TGI [31]
10.9 µM: TGI [46]
16.8 µM: TGI [1]
27.3 µM: TGI [11] | TGI [47]
18.2 µM: TGI [56]
21.3 µM: TGI [5]
21.9 µM: TGI [12]
29.4 µM: TGI [22]
27.6 µM: TGI [30]
26.6 µM: TGI [40]
29.5 µM: TGI [28] | TGI [32] | TGI [39]
31.1 µM: TGI [26]
29.9 µM: TGI [18]
9.23 µM: TGI [14]
14.2 µM: TGI [24]
23 µM: TGI [35]
25.7 µM: TGI [7]
6.07 µM: TGI [21]
7.91 µM: TGI [51]
inactive: GI50 [1] 3.69 µM | GI50 [2] 13.3 µM | GI50 [3] 13.2 µM | GI50 [4] 15 µM | GI50 [5] 6.24 µM | GI50 [6] 15.2 µM | GI50 [7] 12.9 µM | GI50 [8] 3.78 µM | GI50 [9] 3.44 µM | GI50 [10] 13.2 µM | GI50 [11] 12.7 µM | GI50 [12] 6.71 µM | GI50 [13] 1.27 µM | GI50 [14] 2.69 µM | GI50 [15] 3.43 µM | GI50 [16] 15 µM | GI50 [17] 13.5 µM | GI50 [18] 15.1 µM | GI50 [58] 3.25 µM | GI50 [19] 3.2 µM | GI50 [20] 11.2 µM | GI50 [21] 1.84 µM | GI50 [22] 15.3 µM | GI50 [23] 10 µM | GI50 [24] 3.52 µM | GI50 [25] 1.79 µM | GI50 [26] 15.6 µM | GI50 [27] 17 µM | GI50 [28] 13.4 µM | GI50 [29] 8.55 µM | GI50 [30] 14.5 µM | GI50 [31] 19.7 µM | GI50 [32] 15.5 µM | GI50 [33] 2.51 µM | GI50 [34] 2.58 µM | GI50 [35] 11.1 µM | GI50 [36] 2.67 µM | GI50 [37] 2.77 µM | GI50 [38] 7.05 µM | GI50 [39] 15.1 µM | GI50 [40] 12.8 µM | GI50 [41] 18.6 µM | GI50 [42] 15.1 µM | GI50 [43] 16.2 µM | GI50 [44] 13.3 µM | GI50 [45] 6.38 µM | GI50 [46] 2.87 µM | GI50 [47] 13.5 µM | GI50 [48] 12.1 µM | GI50 [49] 11.8 µM | GI50 [50] 2.28 µM | GI50 [51] 2.76 µM | GI50 [52] 4.38 µM | GI50 [53] 14.7 µM | GI50 [54] 5.91 µM | GI50 [55] 11.3 µM | GI50 [56] 5.81 µM | GI50 [57] 3.58 µM
31.7 µM: TGI [27]
28.3 µM: TGI [4]
12.2 µM: TGI [57]
18.9 µM: TGI [54]
27.2 µM: TGI [20]
31.6 µM: TGI [42]
31.5 µM: TGI [43]
21.7 µM: TGI [38]
11.8 µM: TGI [50]
21.5 µM: TGI [29]
